According to the NIST ThermoML archive (doi:10.1016/j.jct.2018.01.025):

Settings: Liquid; for mass density: Vibrating tube method

CCCC[N+](C)(C)C.O=S(=O)([N-]S(=O)(=O)C(F)(F)F)C(F)(F)F [butyltrimethylammonium bis(trifluoromethylsulfonyl)imide]
Settings | viscosity [mPa·s]
278.15 K, 101.33 kPa, Concentric cylinders viscometry | 360.1
283.15 K, 101.33 kPa, Concentric cylinders viscometry | 253.8
288.15 K, 101.33 kPa, Concentric cylinders viscometry | 184.7
293.15 K, 101.33 kPa, Concentric cylinders viscometry | 138.3
298.15 K, 101.33 kPa, Concentric cylinders viscometry | 105.4
298.6 K, 101.33 kPa, Vibrating wire viscometry | 102.17
301.53 K, 101.33 kPa, Vibrating wire viscometry | 87.01
303.15 K, 101.33 kPa, Concentric cylinders viscometry | 82.19
303.15 K, 10000 kPa, Falling or rolling sphere viscometry | 93.4
303.15 K, 15000 kPa, Falling or rolling sphere viscometry | 99.9
303.15 K, 25000 kPa, Falling or rolling sphere viscometry | 114
303.15 K, 50000 kPa, Falling or rolling sphere viscometry | 158.2
303.15 K, 75000 kPa, Falling or rolling sphere viscometry | 218.5
303.15 K, 100000 kPa, Falling or rolling sphere viscometry | 300.8
303.15 K, 125000 kPa, Falling or rolling sphere viscometry | 413.1
303.15 K, 150000 kPa, Falling or rolling sphere viscometry | 566.6
304.45 K, 101.33 kPa, Vibrating wire viscometry | 76.4
307.33 K, 101.33 kPa, Vibrating wire viscometry | 66.1
308.15 K, 101.33 kPa, Concentric cylinders viscometry | 65.33
310.28 K, 101.33 kPa, Vibrating wire viscometry | 58.41
313.15 K, 101.33 kPa, Concentric cylinders viscometry | 53.01
313.15 K, 10000 kPa, Falling or rolling sphere viscometry | 59.7
313.15 K, 15000 kPa, Falling or rolling sphere viscometry | 63.7
313.15 K, 25000 kPa, Falling or rolling sphere viscometry | 72.4
313.15 K, 50000 kPa, Falling or rolling sphere viscometry | 98.5
313.15 K, 75000 kPa, Falling or rolling sphere viscometry | 132.2
313.15 K, 100000 kPa, Falling or rolling sphere viscometry | 175.9
313.15 K, 125000 kPa, Falling or rolling sphere viscometry | 232.5
313.15 K, 150000 kPa, Falling or rolling sphere viscometry | 306
313.34 K, 101.33 kPa, Vibrating wire viscometry | 50.51
318.15 K, 101.33 kPa, Concentric cylinders viscometry | 43.22
323.15 K, 101.33 kPa, Concentric cylinders viscometry | 35.9
323.15 K, 10000 kPa, Falling or rolling sphere viscometry | 40.1
323.15 K, 15000 kPa, Falling or rolling sphere viscometry | 42.6
323.15 K, 25000 kPa, Falling or rolling sphere viscometry | 47.9
323.15 K, 50000 kPa, Falling or rolling sphere viscometry | 63.5
323.15 K, 75000 kPa, Falling or rolling sphere viscometry | 83.6
323.15 K, 100000 kPa, Falling or rolling sphere viscometry | 109.1
323.15 K, 125000 kPa, Falling or rolling sphere viscometry | 142
323.15 K, 150000 kPa, Falling or rolling sphere viscometry | 183.4
323.33 K, 101.33 kPa, Vibrating wire viscometry | 35.59
328.15 K, 101.33 kPa, Concentric cylinders viscometry | 30.18
328.27 K, 101.33 kPa, Vibrating wire viscometry | 29.72
333.15 K, 101.33 kPa, Concentric cylinders viscometry | 25.64
333.15 K, 10000 kPa, Falling or rolling sphere viscometry | 28.2
333.15 K, 15000 kPa, Falling or rolling sphere viscometry | 29.8
333.15 K, 25000 kPa, Falling or rolling sphere viscometry | 33.3
333.15 K, 50000 kPa, Falling or rolling sphere viscometry | 43.4
333.15 K, 75000 kPa, Falling or rolling sphere viscometry | 56.1
333.15 K, 100000 kPa, Falling or rolling sphere viscometry | 71.9
333.15 K, 125000 kPa, Falling or rolling sphere viscometry | 91.8
333.15 K, 150000 kPa, Falling or rolling sphere viscometry | 116.8
338.15 K, 101.33 kPa, Concentric cylinders viscometry | 22.02
343.15 K, 101.33 kPa, Concentric cylinders viscometry | 19.08
343.15 K, 10000 kPa, Falling or rolling sphere viscometry | 21
343.15 K, 15000 kPa, Falling or rolling sphere viscometry | 22
343.15 K, 25000 kPa, Falling or rolling sphere viscometry | 24.3
343.15 K, 50000 kPa, Falling or rolling sphere viscometry | 31
343.15 K, 75000 kPa, Falling or rolling sphere viscometry | 39.5
343.15 K, 100000 kPa, Falling or rolling sphere viscometry | 50.3
343.15 K, 125000 kPa, Falling or rolling sphere viscometry | 63.8
343.15 K, 150000 kPa, Falling or rolling sphere viscometry | 81
348.15 K, 101.33 kPa, Concentric cylinders viscometry | 16.65
353.15 K, 101.33 kPa, Concentric cylinders viscometry | 14.74
353.15 K, 10000 kPa, Falling or rolling sphere viscometry | 15.6
353.15 K, 15000 kPa, Falling or rolling sphere viscometry | 16.5
353.15 K, 25000 kPa, Falling or rolling sphere viscometry | 18.3
353.15 K, 50000 kPa, Falling or rolling sphere viscometry | 23.4
353.15 K, 75000 kPa, Falling or rolling sphere viscometry | 29.4
353.15 K, 100000 kPa, Falling or rolling sphere viscometry | 36.6
353.15 K, 125000 kPa, Falling or rolling sphere viscometry | 45.3
353.15 K, 150000 kPa, Falling or rolling sphere viscometry | 55.7
358.15 K, 101.33 kPa, Concentric cylinders viscometry | 12.99
363.15 K, 101.33 kPa, Concentric cylinders viscometry | 11.58
368.15 K, 101.33 kPa, Concentric cylinders viscometry | 10.38
373.15 K, 101.33 kPa, Concentric cylinders viscometry | 9.36

101.33 kPa
Settings | mass density [kg/m3]
278.15 K | 1411.5
283.15 K | 1406.6
288.15 K | 1401.9
293.15 K | 1397.2
298.15 K | 1392.8
303.15 K | 1388.4
308.15 K | 1384
313.15 K | 1379.7
318.15 K | 1375.4
323.15 K | 1371.1
328.15 K | 1366.8
333.15 K | 1362.6
338.15 K | 1358.4
343.15 K | 1354.2
348.15 K | 1350
353.15 K | 1345.7
358.15 K | 1341.4
363.15 K | 1336.8
368.15 K | 1332.5
373.15 K | 1328.4
